Patent US20230287343A1, “METHOD FOR GENERATING A THREE-DIMENSIONAL NEUROMUSCULAR ORGANOID IN VITRO” (MAX-DELBRÜCK-CENTRUM FÜR MOLEKULARE MEDIZIN IN DER …, priority 2020, published 2023)
“Also recorded” adds a separate entry of the source.

Experiments:
[1] = test system: neuromuscular organoids (NMOs); test: Microelectrode array (MEA) recording of NMO electrical activity; assay type: cell-based, human; details: for local (single electrode) firings / synchronous network activity (paired electrode spikes): NMDA and 5-HT stimulation at day 50; for rhythmic activity (central pattern generator-like): NMDA/5-HT cocktail; for activity triggered by the drugs (fictive locomotion paradigm): cocktail of NMDA (10 uM) and 5-HT (40 uM); for suppression of electrical activity: APV 50 uM and CNQX 40 uM applied together
[2] = test system: neuromuscular organoids (NMOs); test: Contractile activity of NMOs before and after curare; assay type: cell-based, human; details: curare 10 uM, before and after treatment
Description: Video segments of equal length were recorded using a bright-field microscope (DMI1, Leica) in 3 different regions of the same organoid using 20× zoom. To quantify muscle contractions, each movie was analyzed separately where each visible contraction was counted and then averaged for the whole organoid.
To analyze and map organoid muscular contraction, bright field time series images were automatically thresholded using ImageJ software to identify organoid border. A binary stack was created and contractile regions were visually identified. Regions of interest were defined and variations of organoid area (in pixel), used as a proxy of physical contraction, were plotted over the time series.

## NCCc1c[nH]c2ccc(O)cc12 [5-HT, Serotonin]
[1]
  local (single electrode) firings: increased single firings; also recorded: notable increase of local firings
  synchronous network activity (paired electrode spikes): increase in paired electrode spikes; also recorded: dramatic increase of synchronous network activity
  activity triggered by the drugs (fictive locomotion paradigm): instantaneously triggered strong activity
[1]; day 50 NMOs
  rhythmic activity (central pattern generator-like): activity became rhythmic; also recorded: produced rhythmic bursts of electrical activity

## N[C@@H](CCCP(=O)(O)O)C(=O)O [APV]
[1]
  suppression of electrical activity: reversibly suppressed nearly all electrical activity

## N#Cc1cc2[nH]c(=O)c(=O)[nH]c2cc1[N+](=O)[O-] [CNQX]
[1]
  suppression of electrical activity: reversibly suppressed nearly all electrical activity

## CN[C@H](CC(=O)O)C(=O)O [NMDA]
[1]
  local (single electrode) firings: increased single firings; also recorded: notable increase of local firings
  synchronous network activity (paired electrode spikes): increase in paired electrode spikes; also recorded: dramatic increase of synchronous network activity
  activity triggered by the drugs (fictive locomotion paradigm): instantaneously triggered strong activity
[1]; day 50 NMOs
  rhythmic activity (central pattern generator-like): activity became rhythmic; also recorded: produced rhythmic bursts of electrical activity

## N[C@@H](CCC(=O)O)C(=O)O [glutamate]
[1]; acute glutamate 50 uM, day 30 and day 50 organoids
  increase of spontaneous activity: approximately 12 fold

## NC1=N[C@H](O)[C@H]2[C@H]3O[C@]4(O)O[C@@H]([C@@H](O)[C@@]2(N1)[C@@H]4O)[C@]3(O)CO [tetrodotoxin]
[1]
  suppression of NMDA/5-HT triggered activity: reversibly suppressed

## curare
[2]
  contraction of the skeletal muscles (contractile activity of NMOs): blocked the contraction of the skeletal muscles; also recorded: organoid relaxation
[1]; curare 10 uM, day 50 NMOs
  block of acetylcholine-stimulated electrical activity: rapidly and reversibly blocked
